Measured values published in ChEMBL document CHEMBL1131799, “Polyunsaturated fatty acid anilides as inhibitors of acyl-coA: cholesterol acyltransferase (ACAT)” (Bioorg Med Chem Lett, 1999).

Assays:
[1] = biological target: T1, Acyl-CoA:cholesterol acyltransferase (Oryctolagus cuniculus, UniProt Q95214); test: Compound was tested for inhibitory activity against ACAT from rabbit adrenal gland; assay type: tissue-based
T1 sequence (Q95214 whole entry): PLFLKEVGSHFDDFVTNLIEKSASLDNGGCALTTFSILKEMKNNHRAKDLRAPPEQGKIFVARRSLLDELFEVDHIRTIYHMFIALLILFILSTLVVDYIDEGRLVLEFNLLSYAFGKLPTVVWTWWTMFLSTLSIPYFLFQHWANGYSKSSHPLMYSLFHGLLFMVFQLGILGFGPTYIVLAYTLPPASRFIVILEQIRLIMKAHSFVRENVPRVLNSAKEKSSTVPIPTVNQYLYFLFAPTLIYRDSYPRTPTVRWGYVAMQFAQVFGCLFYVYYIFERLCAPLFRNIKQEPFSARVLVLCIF

[2] = biological target: O-acyltransferase (Oryctolagus cuniculus, UniProt G1SFD9); test: Compound was tested for inhibitory activity against ACAT from rabbit intestine; assay type: tissue-based
Sequence of O-acyltransferase (G1SFD9 1-524): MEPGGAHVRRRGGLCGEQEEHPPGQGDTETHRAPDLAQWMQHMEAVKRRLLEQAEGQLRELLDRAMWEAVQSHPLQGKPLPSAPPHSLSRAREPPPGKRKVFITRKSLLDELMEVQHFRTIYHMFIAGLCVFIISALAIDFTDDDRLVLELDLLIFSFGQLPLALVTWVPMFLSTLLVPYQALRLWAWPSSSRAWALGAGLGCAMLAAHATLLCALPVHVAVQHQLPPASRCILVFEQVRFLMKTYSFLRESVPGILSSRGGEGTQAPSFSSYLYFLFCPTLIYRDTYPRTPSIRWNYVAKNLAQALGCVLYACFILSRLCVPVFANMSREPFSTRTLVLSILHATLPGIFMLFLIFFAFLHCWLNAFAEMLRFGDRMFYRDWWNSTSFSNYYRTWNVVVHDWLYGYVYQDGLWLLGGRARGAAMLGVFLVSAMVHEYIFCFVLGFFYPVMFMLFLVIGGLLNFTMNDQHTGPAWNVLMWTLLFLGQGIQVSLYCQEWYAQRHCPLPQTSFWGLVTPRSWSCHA

[3] = biological target: T1, Acyl-CoA:cholesterol acyltransferase; test: Compound was tested for inhibitory activity against ACAT from rabbit liver

| SMILES | IC50 [1] [nM] | IC50 [2] [nM] | IC50 [3] [nM] |
| --- | --- | --- | --- |
| C/C=C/C/C=C/C/C=C/C/C=C/C/C=C/C/C=C/CCCC(=O)Nc1c(C(C)C)cccc1C(C)C | 228 | 45 | 56 |
| CCCCCCCCCCCCCC(=S)Nc1c(C(C)C)cccc1C(C)C | 554 | 6 | 15 |
| CCCCCCCCCCC(C)(C)C(=O)Nc1c(OC)cc(OC)cc1OC [CL-976] | 1950 |  | 191 |
